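Briefly, cells in 96-well plates were exposed to five compound concentrations for 48 h, and endpoints were estimated by linear interpolation. Here, GI50 denotes the concentration required for 50% inhibition of growth. TGI: total growth inhibition.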
Tests used:
Assay in all cases: NCI anticancer screen, dose series, 48 h
[1] = system: A549 NSCLC
[2] = system: CAKI-1 renal
[3] = system: HCT-15 colon
[4] = system: LOX IMVI melanoma
[5] = system: MDA-MB-231 breast
[6] = system: MDA-MB-435
[7] = system: MOLT-4 leukemia
[8] = system: NCI-H226 lung
[9] = system: SF-539 CNS
[10] = system: SNB-19 CNS
[11] = system: SNB-75 CNS

Compound	TGI [1]	TGI [2]	TGI [3]	TGI [4]	TGI [5]	TGI [6]	TGI [7]	TGI [8]	TGI [9]	TGI [10]	TGI [11]	GI50 [1]	GI50 [2]	GI50 [5]	GI50 [6]	GI50 [7]	GI50 [8]	GI50 [9]	GI50 [10]	GI50 [11]
C[C@@H]1OC2(O)[C@@H]3CCCN3C(=O)N(Cc3ccccc3)N2C1=O (stereo not given in full)	> 100 µM	> 100 µM	> 100 µM	> 100 µM	> 100 µM	> 100 µM	> 100 µM	> 100 µM	> 100 µM	> 100 µM	88.7 µM									
COc1ccc(C(=O)N2CCN(c3ccc4[nH]c(=O)oc4c3)CC2)cc1	> 100 µM		> 100 µM	> 100 µM	> 100 µM	> 100 µM	> 100 µM	> 100 µM	> 100 µM	> 100 µM	> 100 µM									
CO[C@H](c1ccccc1)[C@H](O)[C@](O)(c1ccccc1)P(=O)(OC)OC	> 100 µM	> 100 µM	> 100 µM	> 100 µM	> 100 µM	> 100 µM	> 100 µM	> 100 µM	> 100 µM	> 100 µM	> 100 µM									
C(/C=N/NC1=NCCCN1)=N\NC1=NCCCN1	> 100 µM	> 100 µM		> 100 µM	> 100 µM	> 100 µM	> 100 µM	> 100 µM	> 100 µM	> 100 µM	> 100 µM									
COC(=O)C(Cc1c[nH]c2ccccc12)NP(=O)(O)OCC1OC(n2cc(F)c(=O)[nH]c2=O)CC1O (stereo not given)	> 100 µM		> 100 µM	> 100 µM	> 100 µM	> 100 µM	> 100 µM	> 100 µM	> 100 µM	> 100 µM	> 100 µM									
COC(=O)/C=C(\S/C(=C(/c1ccc(OC)cc1)n1cc(C(=O)OC)c(C(=O)OC)n1)c1ccc(OC)cc1)C(=O)OC	> 100 µM	6.41 µM	37.9 µM	25.4 µM	> 100 µM	34.2 µM	> 100 µM	> 100 µM	> 100 µM	> 100 µM	> 100 µM									
O=C(NN1C(=O)c2ccccc2C1=O)c1ccccc1Nc1ccccc1C(=O)NN1C(=O)c2ccccc2C1=O		> 100 µM	> 100 µM	> 100 µM	> 100 µM	> 100 µM	> 100 µM	> 100 µM	> 100 µM	> 100 µM	> 100 µM									
CC(C)N(c1cc2c(cc1F)c(=O)c(C(=O)O)cn2-c1ccc(N2CCN(C)CC2)cn1)C(C)C	> 100 µM	> 100 µM	> 100 µM	> 100 µM	> 100 µM	> 100 µM	> 100 µM	> 100 µM	> 100 µM	> 100 µM	> 100 µM									
O=C(CCCN1CC=C(n2c(=O)[nH]c3ccccc32)CC1)c1cccs1	> 100 µM	> 100 µM	> 100 µM	> 100 µM	> 100 µM	> 100 µM	> 100 µM	> 100 µM	> 100 µM	> 100 µM	> 100 µM									
COc1c(O)cc2c(c1O)C1O[C@H](CO)C(O)[C@H](O)[C@H]1OC2=O (stereo not given in full)	> 100 µM	> 100 µM	> 100 µM	> 100 µM	> 100 µM	> 100 µM	> 100 µM	> 100 µM	> 100 µM	> 100 µM	> 100 µM									
CCO/C(O)=C(/C(=N)N1CCCC1)C(=O)Nc1ccc(Cl)cc1	> 100 µM	> 100 µM	> 100 µM	> 100 µM	> 100 µM	> 100 µM	> 100 µM	> 100 µM	> 100 µM	> 100 µM	> 100 µM									
CC(CCC(=O)O)[C@H]1CCC2[C@H]3C(CC(=O)[C@@]21C)[C@@]1(C)CCC(O)C[C@H]1C[C@@H]3O (stereo not given in full)	> 100 µM	> 100 µM	> 100 µM	> 100 µM	> 100 µM	> 100 µM	> 100 µM	> 100 µM	> 100 µM	> 100 µM	> 100 µM									
COc1ccccc1CNCc1nc2ccccc2[nH]1	> 100 µM	> 100 µM	> 100 µM	> 100 µM	> 100 µM	> 100 µM	> 100 µM	> 100 µM	> 100 µM	> 100 µM	> 100 µM									
O=c1[nH]c(=O)n(C2CC(O)C(CO)O2)c2nc3ccc4ccccc4c3nc12 (stereo not given)	> 100 µM	> 100 µM	> 100 µM	> 100 µM	> 100 µM	> 100 µM	54.3 µM	> 100 µM	> 100 µM	> 100 µM	> 100 µM									
N#CC(C#N)=C1CCCCc2ccc([N+](=O)[O-])cc21	> 100 µM	> 100 µM	> 100 µM	> 100 µM	> 100 µM	> 100 µM	> 100 µM	> 100 µM	> 100 µM	> 100 µM	> 100 µM									
CC(C)(C)C(=O)Nc1cccc(-c2ccc[nH]2)n1	> 100 µM	> 100 µM	> 100 µM	> 100 µM	> 100 µM	> 100 µM	> 100 µM	> 100 µM	> 100 µM	> 100 µM	> 100 µM									
O=C(O)CCSc1nnc(COc2ccc(Cl)cc2)n1-c1ccccc1	> 100 µM	> 100 µM	> 100 µM	> 100 µM	> 100 µM	> 100 µM	> 100 µM	> 100 µM	> 100 µM	> 100 µM	> 100 µM									
C/C(=C/CNc1ncnc2c1ncn2CCC#N)CO	> 100 µM	> 100 µM		> 100 µM	> 100 µM	> 100 µM	> 100 µM	> 100 µM	> 100 µM	> 100 µM	> 100 µM									
COc1ccc(-c2cc(-c3ccco3)c(C#N)c(=S)n2C2OC(CO)C(O)C(O)C2O)cc1 (stereo not given)	> 100 µM	> 100 µM	> 100 µM	> 100 µM	> 100 µM	> 100 µM	> 100 µM	> 100 µM	> 100 µM	> 100 µM	> 100 µM									
C=CC1(c2ccc(Br)cc2)OCCCO1	> 100 µM		> 100 µM	> 100 µM	> 100 µM	> 100 µM	> 100 µM	> 100 µM	> 100 µM	> 100 µM	> 100 µM									

Compound	TGI [1]	TGI [2]	TGI [3]	TGI [4]	TGI [5]	TGI [6]	TGI [7]	TGI [8]	TGI [9]	TGI [10]	TGI [11]	GI50 [1]	GI50 [2]	GI50 [5]	GI50 [6]	GI50 [7]	GI50 [8]	GI50 [9]	GI50 [10]	GI50 [11]
CC(=C(C(=O)O)C(=O)O)c1cc(-c2cccs2)cc(-c2ccc(Cl)cc2)c1O	> 80.8 µM	40.6 µM	37.5 µM	29.6 µM	43.5 µM	35.1 µM	69.7 µM	> 72.2 µM	29.8 µM	37.1 µM	37.6 µM									
O=C1OC2(c3ccc(O)cc3Oc3cc(O)ccc32)c2c1c(-c1ccccc1)c(-c1ccccc1)c(-c1ccccc1)c2-c1ccccc1	> 100 µM	62.8 µM	38.5 µM	32.4 µM	37.4 µM	35.1 µM	56.9 µM	87.3 µM	40.8 µM	37.7 µM	41 µM									
CCn1c(SCC(=O)NNC(=S)Nc2ccc(F)cc2)nc2ccccc2c1=O	> 100 µM		> 100 µM	> 100 µM	> 100 µM	> 100 µM	> 100 µM	> 100 µM	> 100 µM	> 100 µM	> 100 µM									
COc1ccc(NC(C)=O)cc1N1C(=O)/C(=C\c2cc(OC)c(OC)c(OC)c2)S(=O)(=O)C1c1ccccc1 (stereo not given)	> 100 µM	> 100 µM	> 100 µM	> 100 µM	> 100 µM	> 100 µM	> 100 µM	> 100 µM	> 100 µM	> 100 µM	> 100 µM									
N#CC1=C(N2CCOCC2)CCC1	> 100 µM	> 100 µM	> 100 µM	> 100 µM	> 100 µM	> 100 µM	> 100 µM	> 100 µM	> 100 µM	> 100 µM	> 100 µM									
O=c1[nH]c2ccsc2c(=O)n1COCc1ccccc1	> 100 µM	> 100 µM	> 100 µM	> 100 µM	> 100 µM	> 100 µM	> 100 µM	> 100 µM	> 100 µM	> 100 µM	> 100 µM									
CC1=[N+]([O-])C(C)(C)N(O)C1(C)C	> 100 µM		> 100 µM	> 100 µM	> 100 µM	> 100 µM	> 100 µM	> 100 µM	> 100 µM	> 100 µM	> 100 µM									
CCOC(=O)Oc1cc2c(ccn2C)c2c1c1ccccc1n2C(=O)OCC	> 100 µM	> 100 µM	> 100 µM	> 100 µM	> 100 µM	> 100 µM	> 100 µM	> 100 µM	> 100 µM		> 100 µM									
CC1(C)N=C(N)N=C(N)N1c1cccc(OCc2cccc([N+](=O)[O-])c2)c1	> 100 µM	> 100 µM	> 100 µM	> 100 µM	> 100 µM	> 100 µM	> 100 µM	> 100 µM	> 79.4 µM	> 100 µM	> 100 µM									
C/C(=C\COP(=O)(O)OP(=O)(O)O)CC/C=C(\C)CNc1ccc([N+](=O)[O-])cc1	> 100 µM	> 100 µM	> 100 µM	> 100 µM	> 100 µM	> 100 µM	> 100 µM	> 100 µM	> 100 µM	> 100 µM	> 100 µM									
O=C1CCSc2c(cnc3ccccc23)N1	> 100 µM	> 100 µM	> 100 µM	> 100 µM	> 100 µM	> 100 µM	> 100 µM	> 100 µM	> 100 µM		> 100 µM									
COC(=O)/C(C#N)=C(\Nc1ccccc1)N1CCCCC1	> 100 µM	> 100 µM	> 100 µM	> 100 µM	> 100 µM	> 100 µM	> 100 µM	> 100 µM	> 100 µM	> 100 µM	> 100 µM									
CCOn1cc(C2=C(c3c[nH]c4ccccc34)C(=O)NC2=O)c2ccccc21	22.7 µM	< 0.0306 µM	14.8 µM	25.9 µM	26.4 µM	< 0.0142 µM	10.4 µM	27.4 µM	< 0.01 µM	20.5 µM	34.8 µM	< 0.0284 µM	< 0.0121 µM	0.806 µM	< 0.01 µM	< 0.01 µM	1.01 µM	< 0.01 µM	< 0.0264 µM	< 0.0288 µM
NC(=O)NC(=O)c1ccc(NC(=O)CBr)cc1	> 32.6 µM	1.52 µM	4.56 µM	2.26 µM	6.48 µM	3.06 µM	2.61 µM	10.2 µM	6.35 µM	> 49.8 µM	4.19 µM									
COc1cc(/C=N/NC2=NCCCN2)ccc1O	> 100 µM		> 100 µM	> 100 µM	> 100 µM	> 100 µM	> 100 µM	> 100 µM	> 100 µM	> 100 µM	> 100 µM									
CNC(=S)NNC1=NCCCCN1	> 100 µM	> 100 µM	> 100 µM	> 100 µM	> 100 µM	> 100 µM	> 100 µM	> 100 µM	> 100 µM	> 100 µM	> 100 µM									
CC(C)N1CCCOC(c2ccc([N+](=O)[O-])cc2)O1 (stereo not given)	> 100 µM	> 100 µM	> 100 µM	> 100 µM	> 100 µM	> 100 µM	> 100 µM	> 100 µM	> 100 µM		> 100 µM									
CCCCCNC1=CC(=O)c2ccccc2C1=O	> 100 µM	80.6 µM	> 100 µM	> 57 µM	44.3 µM	> 100 µM	> 100 µM	> 82.5 µM	41 µM	82.5 µM	49.4 µM									
Nc1c(Cl)c([N+](=O)[O-])cc2c1OCCCCO2	> 100 µM	> 100 µM	> 100 µM	> 100 µM	> 100 µM	> 100 µM	> 100 µM	> 100 µM	> 100 µM		93 µM									
COc1cc(/C=C2\N=C(c3ccccc3)N(/N=C/c3cc4cc(C)ccc4nc3Cl)C2=O)cc(OC)c1OC	> 100 µM	> 100 µM	> 100 µM	> 100 µM	> 100 µM	40.7 µM	51 µM		41.8 µM	> 100 µM	61.5 µM									

— PubChem BioAssay (NCI)
